Results taken from patent US8309140B2, “Effect of porcine sheath proteins on the regeneration activity of periodontal ligament” (priority 2005, dated 2012).
“Also recorded” adds a separate entry of the source.

B1: 13 kDa sheath protein: sheath protein containing the 99 amino acids extending from M32 to Q130 (protein)
chain: MLSQYSRFGFGKSFNSLWMHGLLPPHSSFQWMRPREHETQQYEYSLPVHPPPLPSQPSLQPQQPGQKPFLQPTVVTSIQNPVQKGVPQPPIYQGHPPLQ

What was measured:
[1] = test system: human periodontal ligament (HPDL) cells; assay: ALP inducing activity of HPDL cells on cell culture system; format: cell-based; details: for ALP activity of HPDL cells (human synthetic peptides, Example 3): peptides around 1 ng/ml, TGF-β1 10 ng/ml; for ALP inducing activity of HPDL cells (Example 4): peptides 50 μg/mL, TGF-β1 1 ng/mL, BMP-2 1 μg/mL; for ALP inducing activity of HPDL cells (Example 4) / ALP activity of HPDL cells (porcine sheath proteins and synthetic peptides): 96 h; for ALP activity of HPDL cells (porcine sheath proteins and synthetic peptides): 50 μg/ml protein or peptide, TGF-β1 50 ng/ml, BMP-2 500 ng/ml, 10 nM 1α-25dihydroxy-Vitamin D3
Description: (§1) Human periodontal ligament (HPDL) cells were obtained according to the method of Somerman et al., (1988) from healthy premolars which were extracted from the patients for orthodontic reasons. The cells were precultured for 4-6 passages with a-MEM medium to establish the primary cell line. The cells were maintained in the alpha modification of Eagle's medium (α-MEM; Life Technologies, Grand Island, N.Y., USA) containing 10% fetal bovine serum (FBS; Asahi Technoglass, Chiba, Japan) and 1% antibiotics (100 U/ml of Penicillin-G and 100 μg/ml of Streptomycin sulfate; Gibco BRL, Grand Island, N.Y., USA) at 37° C. in a humidified 5% CO2 atmosphere. The ST2 cells (Riken Cell Bank, Tsukuba, Japan), an osteoblast-like mouse bone marrow stromal cell line, were cultured under the same conditions.
HPDL cells were distributed in 96-well plates at a density of approximately 5×10^5 cells per a well and incubated for 24 h. The growth medium was then changed to contain 10 nM of 1α-25dihydroxy-Vitamin D3 (CALBIOCHEM, La Jolla, Calif.) and 50 μg/ml (final concentration) of fractionated enamel protein samples or synthesized peptides dissolved in ultrapure water. After 96 additional hours of incubation, the cells were washed once with PBS, and ALP activity was determined after a 10 min incubation at 37° C. in 10 mM p-nitrophenylphosphate (substrate) in 100 mM 2-amino-2-methyl-1,3-propanediol-HCl buffer (pH 10.0) containing 5 mM MgCl2. After adding 0.2 M NaOH, which stopped the reaction, the absorbance at 405 nm was read on a plate reader.
HPDL cells of approximately 5×10^5 cells per well were distributed in 96-well plates and incubated for 24 h. The growth medium was then changed to contain 10 nM of 1α-25dihydroxy-Vitamin D3 and 50 μg/ml (final concentration) of purified sheath protein or synthesized peptide. After 96 additional hours of incubation, ALP activity was determined using p-nitrophenylphosphate as a substrate.
The bioactivities of these synthetic peptides were tested their cytodifferentiation activity of HPDL cells and ST2 cells by determination of increasing ALP inducing activity on cell culture system. When these peptides applied in cell culture system, the concentration of their peptides was employed around 1 ng/ml. In the case of TGF-1, the concentration was 10 ng/ml.
Normal human periodontal ligament fibroblasts were maintained in an α-minimal essential medium (α-MEM) containing 10% fetal bovine serum, either with or without 10 nM 1α-25dihydroxy-vitamin D3 and 1% antibiotics (100 U/mL of penicillin G and 100 μg/mL of streptomycin sulfate) at 37° C. in a humidified atmosphere of air containing 5% CO2. Another cell line, ST2 cells, was obtained from an osteoblast-like mouse bone marrow stromal cell line. These cells were cultured in the same conditions as those described above.
The ALP inducing activities of synthetic peptides using the cell culture of HPDL cells and ST2 cells were examined. The HPDL cells were distributed in 96-well plates at a density of approximately 5×10^5 cells per well and incubated for 24 h. The medium was then changed to α-MEM containing 10 nM of 1α-25dihydroxy-vitamin D3 and either synthetic peptides or growth factors dissolved in ultra-pure water. After 96 h of incubation, the cells were washed once with phosphate-buffered saline, and 10 mM ρ-nitrophenylphosphate in 100 mM 2-amino-2-methel-1,3-propanediol-HCl buffer (pH 10.0) containing 5 mM MgCl2 was added. The ALP activity was determined after 10 min incubation at 37° C. and the absorbance at 405 nm was read using a plate reader, after adding 0.2 M NaOH to stop the reaction. […] When the synthetic peptides were applied in the cell culture system, their final concentrations were 25 or 50 μg/mL. A TGF-β1 receptor inhibitor (SB431542, 10 μM) was applied to the HPDL cell culture system to examine their influence relative to the ALP inducing activity of the synthetic peptides.

HPDL cells = assay: Mineralization activity of HPDL cells (alizarin red S staining, calcium content); format: cell-based, human; details: for induction of mineralization of HPDL cells (Example 3): 30 days culture, 1 μg/ml of samples, differentiation medium
Procedure: (§2) The HPDL cells were plated in 24-well plates at an initial density of 1×10^5 cells/well. After 24 h of incubation, the medium was replaced with growth medium containing 50 μM ascorbic acid, 10 mM β-glycerophosphate, and 10 nM 1α,25-dihydroxyvitamin D3 (differentiation medium) and 1 μg/ml of samples. The medium was changed every 72 h. The cells were maintained for 30 days and then the medium was discarded.
The compartments of cells were fixed in 100% methanol, stained with alizarin red S for 10 min, then washed with ultrapure water and photographed to examine the biomineralization activity. The staining solution was 1% alizarin red S (sodium alizarin sulfonate) (Sigma) dissolved in ultrapure water and adjusted to pH 6.4 with 0.1N ammonium hydroxide.
For measuring the calcium content, the compartments of cells were dissolved by 0.5N hydrochloric acid. The resulting solution was measured by a Calcium C-test kit and protocol (Wako Pure Chemical Industries Ltd, Osaka, Japan). The absorbance at 570 nm was read on a plate reader.
as §2, with “h and the” for “h. The”, “days. The biomineralization activity was examined by staining with alizarin red S” for “days”, “measuring calcium content.” for “then the medium was discarded.”
The HPDL cells were plated in six-well plates at an initial density of 1×10^5 cells per well. […]
For Alizarin Red S staining, the compartments of 28 d cultured cells were fixed in 100% methanol, stained with Alizarin Red S for 10 min, then washed with ultra-pure water and photographed. […] The resulting solution was measured using a Calcium C-test kit and protocol. The absorbance at 570 nm was read with a plate reader. […]

[2] = test system: human periodontal ligament (HPDL) cells; details: cited from earlier work
[3] = test system: osteopontin, osteocalcin and bone sialoprotein expression in HPDL cells; assay: Semi-quantitative PCR of mineralized tissue markers in cultured HPDL cells; format: cell-based, human; details: 4, 14 and 28 d cultured HPDL cells; H-2 25 μg/mL; TGF-β1 1 ng/mL
Description: Total RNA was extracted using RNAzol™ B from cultured HPDL cells. […] The PCR primers were designed based upon the Homo sapiens mRNA sequences. The primer pairs were as follows: osteopontin, 5′-[…]-3′ (SEQ ID NO: 45) and 5′-[…] TGAA-3′ (SEQ ID NO: 46) (301 bp); osteocalcin, 5′-[…]-3′ (SEQ ID NO: 47) and 5′-[…] GAGGT-3′ (SEQ ID NO: 48) (304 bp); and bone sialo protein, 5′-[…]-3′ (SEQ ID NO: 49) and 5′-[…]-3′ (SEQ ID NO: 50) (448 bp). A primer set amplifying glyceraldehyde-3phosphate dehydrogenase mRNA was used as a control.
The cDNAs generated from HPDL cells […] the DNA Master SYBR Green I kit and protocol and a LightCycler instrument. The relative amount of each mRNA was determined at 50% levels of PCR product, and normalized with use of the relative amount of GAPDH mRNA.

ST2 cells = assay: ALP inducing activity of ST2 cells on cell culture system; format: cell-based, mouse; details: 50 μg/ml protein or peptide; TGF-β1 50 ng/ml, BMP-2 500 ng/ml
Description: as §1
HPDL cells of approximately 5×10^5 cells per well were distributed in 96-well plates and incubated for 24 h. […] After 96 additional hours of incubation, ALP activity was determined using p-nitrophenylphosphate as a substrate. […]
The ALP inducing activities of synthetic peptides using the cell culture of HPDL cells and ST2 cells were examined. […] The ALP activity was determined after 10 min incubation at 37° C. and the absorbance at 405 nm was read using a plate reader, after adding 0.2 M NaOH to stop the reaction. […]

[4] = test system: buccal dehiscence type bone defects created along the roots of the canine mandibular premolars; assay: Cementum regeneration (CR) activity, eight-week histological analysis on buccal dehiscence model of dogs; format: in vivo, beagle dogs; details: histological analysis eight weeks after application; buccal dehiscence model of dogs
Procedure: Approximately 2-year-old male beagle dogs (approximate 15 kg) were used to detect the CR activities after the applications of several enamel protein samples. They had intact dentition and a healthy periodontium. The surgical preparation of buccal dehiscence type bone defects was carried out according to the modified method of Hammarström (1997) under general anesthesia induced and maintained by an endotracheal tube with 1.5-2.0% of halothane (Takeda Yakuhin Co. LTD, Osaka, Japan) in 100% oxygen, after premedicated with intramuscular injection of the mixture of Ketamine HCl (9.8 mg/kg: Sankyo Co. LTD, Tokyo, Japan) and Xylazine HCl (0.7 mg/kg: Bayer Co. LTD, Tokyo, Japan).
Contralateral buccal mucoperiosteal flaps were raised after an intracrevicular incision extending from the first mandibular premolar to the first mandibular molar. After the removing the buccal alveolar bone plate covering the mesial root of the second premolars, the exposed periodontal ligament and cementum of these areas were completely removed by means of a dental bur. At the apical end of the defect, a notch was created to identify the apical extension of the defect, when histological analyses. The distance between the cervical margin and the apical end of the defect was standardized at about 5 mm. The exposed root dentin surfaces were conditioned for 2 min with cotton pellets soaked in a 19% EDTA solution, and then carefully rinsed with sterile saline. Then 50 μg of each enamel protein sample in 100 μl of cold sterile distilled water was applied over the entire buccal surface area of the exposed roots. Finally, the mucoperiosteal flaps were repositioned to their level prior to surgery and sutured. Distilled water was used as a negative control and EMDOGAIN® (BIORA AB, Malmö, Sweden) served as a positive control.
After 8 weeks the dogs were terminated by anesthetization with sodium pentobarbital. Their heads were fixed by perfusion with 0.1 M sodium cacodylate buffer (pH 7.4) containing 4% paraformaldehyde and 1% glutaraldehyde. Tissue blocks, which included teeth, bone, and tissue were dissected and demineralized in 10% formic acid containing 0.06 M sodium citrate and 0.1 M citric acid. All specimens were dehydrated using a graded series of alcohols and then embedded in paraffin. Serial sections (5 μm thick) were made and stained with hematoxylin/eosin for examination by light microscopy.
The length and thickness of cementums regenerated after application of fractionated and purified enamel protein samples and EMD were measured on the computer monitor of histological results. The length of the regenerated cementum was straight distance between the apical end of the defect and coronal extention of the new cementum, as well as to the crest of the new alveolar bone. Also, the thickness of cementum was measured at coronal end, apical end and between them.
CR promoting activity of enamel proteins obtained at each extracted and purified step were examined by eight-week histological analysis of buccal dehiscence type bone defects created along the roots of canine mandible (FIG. 1).

[5] = 10 nM 1α-25dihydroxy-vitamin D3

Row | Molecule | ALP activity of HPDL cells (human synthetic peptides, Example 3) [1] | induction of mineralization of HPDL cells (Example 3) (HPDL cells) | ALP inducing activity of HPDL cells (Example 4) [1, 5] | CR (cementum regeneration) activity [4] | ALP activity of HPDL cells (porcine sheath proteins and synthetic peptides) [1] | also measured
1 | FADPQGPSLPGMDF (14 aa from 157 to 170 in sequence 11; listed as Homo sapiens) [H-3] | enhanced dose dependently | enhanced the induction of mineralization | – | – | – | –
2 | QVEGPMVQQQVAPSEK (16 aa from 131 to 146 in sequence 10; listed as Sus scrofa) [P-1] | – | – | – | – | – | ALP inducing activity among porcine ESP synthetic peptides (previous study) [2]: highest ALP inducing activity among all the porcine ESP synthetic peptides tested
3 | SDKPPKPELPGVDF (14 aa from 144 to 157 in sequence 11; listed as Homo sapiens) [H-2] | enhanced dose dependently | enhanced the induction of mineralization | highest ALP inducing activity | – | – | expressions of osteopontin, osteocalcin and bone sialoprotein [3]: closely similar to those of TGF-β1; mineralization by HPDL cells (Example 4) (HPDL cells; 28 d cell culture, H-2 25 μg/mL, TGF-β1 1 ng/mL): induced mineralization
4 | TGF-β1: recombinant growth factor, positive control [reference compound] | – | – | enhanced in a dose-dependent manner; also recorded: increased | shown to have the same activity | further increased | ALP activity of ST2 cells (porcine sheath proteins and synthetic peptides) (ST2 cells): not stimulated; ALP inducing activity of HPDL cells when adding TGF-β1 receptor inhibitor SB431542 ([1]; 10 μM SB431542, 10 nM 1α-25dihydroxy-vitamin D3): inhibited distinctly; concentration for increasing ALP inducing activity of HPDL cells, molar ([1]; calculated from molecular weight (TGF-β1 25 kDa; peptides average 1.5 kDa)): 0.4 nM/liter; apt concentration for increasing ALP inducing activity of HPDL cells ([1]; cell culture system): around 10 ng/ml
5 | B1 | – | – | – | do not exhibit any cementum regeneration activity | not | –
